Source: article PMC6379498, “Radiosynthesis and in vivo evaluation of ^11C-labeled BMS-193885 and its desmethyl analog as PET tracers for neuropeptide Y1 receptors” (EJNMMI Radiopharmacy and Chemistry, 2019)

How the values were obtained:
[1] = Analysis of metabolites in mouse plasma (radio-HPLC); type: in vivo, mice; details: for Percentage of intact tracer in plasma: mouse plasma, 30 min post-injection, radio-HPLC, n=4; for Metabolism in vivo (mouse plasma): within 30 min post-injection
Procedure: [^11C]1 (37–56 MBq/0.73–0.95 nmol) or [^11C]2 (46–61 MBq/1.1–1.5 nmol) was intravenously injected into mice (aged 7–9 weeks, weighing 33–43 g, n = 4). Mice were euthanized by cervical dislocation at 30 min post-injection. Blood samples taken by heart puncture were collected into heparinized syringes. Samples were centrifuged at 13,000×g (Model 5500, KUBOTA, Tokyo, Japan) for 3 min at 4 °C to obtain plasma (0.1–0.2 mL). Plasma samples were added to equivalent volumes of 1 mol/L ammonium acetate solution. Samples were directly loaded into the injector loop, and analyzed using the combination of column-switching HPLC and on-line solid-phase extraction as a modification of the previously described procedures (Chitneni et al. [2008]; Gillings [2009]; Greuter et al. [2005]; Hilton et al. [2000]; Kawamura et al. [2013]). HPLC analysis was performed using the radio-HPLC system for metabolite analysis mentioned in the ‘General’ section above, and also using a Cadenza HS-C18 column (3 μm mesh, 10 mm i.d. × 150 mm length; Imtakt, Kyoto, Japan) fitted with a Cadenza HS-C18 guard cartridge (3 μm mesh, 10 mm i.d. × 8 mm length; Imtakt). Elution was performed using a 0.1 mol/L ammonium acetate solution for 3 min after loading, a mixture of 90% acetonitrile solution and water (0:100 to 40:60, vol./vol.) from 3 to 4 min after loading, and then a mixture of 90% acetonitrile solution and water (40:60, vol./vol.) from 4 to 12 min after loading. The flow rate was 4 mL/min. The retention times of [^11C]1 and [^11C]2 were 10.0 and 10.5 min, respectively.

[2] = Metabolite analysis of mouse plasma after co-injection of [^11C]1 with 1; type: in vivo, mice; details: 30 min after co-injection of [^11C]1 with 1 (50 mg/kg), radio- and UV-HPLC
Procedure: In addition, the effects of co-injection of [^11C]1 with 1 on the results of metabolite analyses of plasma were investigated. [^11C]1 (26-30 MBq/0.38-0.45 nmol) and a solution of 1 (50 mg/kg b.w. in water containing 20% Tween 80) were intravenously co-injected into mice (aged 7-9 weeks, weighing 35-39 g, n = 4). Mice were euthanized by cervical dislocation at 30 min post-injection. Blood samples taken by heart puncture were collected into heparinized syringes. The samples were centrifuged at 13,000×g (Model 5500, KUBOTA, Tokyo, Japan) for 3 min at 4 °C to obtain plasma (0.2 mL). Plasma samples were added to equivalent volumes of acetonitrile, and mixtures were centrifuged at 20,000×g for 2 min. The precipitate was added to 0.2 mL of acetonitrile, and this mixture was centrifuged at 20,000×g for 2 min to obtain the supernatant. The mixed supernatant was added to 0.2 mL of water, and this solution was loaded into the injector loop. HPLC analysis was performed using the abovementioned radio-HPLC system for metabolite analysis, and also a […] column (5 μm mesh, 10 mm i.d. × 150 mm length; YMC, Kyoto, Japan). Elution was performed using a mixture of 90% acetonitrile solution and 0.1 mol/L ammonium acetate solution (45:55, vol./vol.). The flow rate was 4 mL/min.

| Percentage of intact tracer in plasma [1] [%] | Metabolism in vivo (mouse plasma) [1] | Compound | Metabolites found in mouse plasma [2] |
| --- | --- | --- | --- |
| 11.8 ± 2.5 | rapidly metabolized | COC(=O)C1=C(C)NC(C)=C(C(=O)OC)C1c1cccc(NC(=O)NCCCN2CCC(c3cccc(O[11CH3])c3)CC2)c1 [[^11C]1] | rapidly metabolized into its unlabeled desmethyl analog 2 and radiolabeled components |
| 19.9 ± 2.4 | rapidly metabolized | COC(=O)C1=C(C)NC(C)=C(C(=O)OC)C1c1cccc(N[11C](=O)NCCCN2CCC(c3cccc(O)c3)CC2)c1 [[^11C]2] | – |
